Experimental data taken from paper PMC12188521 (RSC Advances, 2025).

Tests used:
[1] = molecular target: acetylcholinesterase (AChE) (Homo sapiens, UniProt P22303); assay: biochemical
[2] = molecular target: butyrylcholinesterase (BuChE) (Homo sapiens, UniProt P06276); assay: In vitro butyrylcholinesterase inhibitory activity; format: biochemical
Chain of butyrylcholinesterase (BuChE) (P06276 29-602): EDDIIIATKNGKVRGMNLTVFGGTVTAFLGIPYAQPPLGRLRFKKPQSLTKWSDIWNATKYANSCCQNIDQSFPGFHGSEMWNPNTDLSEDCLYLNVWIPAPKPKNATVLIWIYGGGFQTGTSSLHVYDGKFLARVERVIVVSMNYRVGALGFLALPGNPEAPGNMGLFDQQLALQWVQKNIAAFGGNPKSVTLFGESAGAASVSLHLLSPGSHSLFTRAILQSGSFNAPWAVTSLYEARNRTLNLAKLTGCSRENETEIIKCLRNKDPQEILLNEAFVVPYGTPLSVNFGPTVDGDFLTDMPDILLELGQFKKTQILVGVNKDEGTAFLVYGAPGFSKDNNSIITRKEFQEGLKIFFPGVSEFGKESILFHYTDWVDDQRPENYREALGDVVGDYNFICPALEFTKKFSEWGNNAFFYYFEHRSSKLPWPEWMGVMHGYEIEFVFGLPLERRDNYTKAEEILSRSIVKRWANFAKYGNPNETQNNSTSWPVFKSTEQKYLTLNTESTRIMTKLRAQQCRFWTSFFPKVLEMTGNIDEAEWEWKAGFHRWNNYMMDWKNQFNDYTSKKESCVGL

Chain of acetylcholinesterase (AChE) (P22303 32-614, species assumed): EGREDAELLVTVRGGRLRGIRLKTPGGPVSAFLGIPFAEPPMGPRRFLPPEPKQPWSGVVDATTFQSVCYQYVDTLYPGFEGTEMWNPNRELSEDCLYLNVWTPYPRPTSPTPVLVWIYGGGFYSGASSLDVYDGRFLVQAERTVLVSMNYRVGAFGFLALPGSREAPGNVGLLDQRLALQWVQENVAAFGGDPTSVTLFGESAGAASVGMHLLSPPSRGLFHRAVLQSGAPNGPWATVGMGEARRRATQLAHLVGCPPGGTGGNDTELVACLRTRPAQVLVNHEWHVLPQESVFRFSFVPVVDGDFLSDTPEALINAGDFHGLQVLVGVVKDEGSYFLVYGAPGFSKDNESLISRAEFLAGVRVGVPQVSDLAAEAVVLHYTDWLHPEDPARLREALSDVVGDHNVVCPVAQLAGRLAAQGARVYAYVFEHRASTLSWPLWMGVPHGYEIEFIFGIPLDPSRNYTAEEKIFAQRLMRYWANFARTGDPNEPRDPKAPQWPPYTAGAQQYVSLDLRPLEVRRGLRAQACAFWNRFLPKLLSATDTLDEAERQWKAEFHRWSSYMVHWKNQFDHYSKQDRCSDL

| SMILES | IC50 [1] | IC50 [2] |
| --- | --- | --- |
| CCN(CC)c1ccc(C=NN=C(C)c2ccc(OCc3ccc(Br)cc3)cc2)cc1 [Compound 2a, 4-(((1-(4-((4-bromobenzyl)oxy)phenyl)ethylidene)hydrazineylidene)methyl)-N,N-diethylaniline] | 44.36 ± 0.33 µM | 77.9 ± 1.46 µM |
| COc1cccc(C=NN=C(C)c2ccc(OCc3ccc(Br)cc3)cc2)c1O [Compound 2b, 2-(((1-(4-((4-Bromobenzyl)oxy)phenyl)ethylidene)hydrazono)methyl)-6-methoxyphenol] | 18.6 ± 0.21 µM | 35.31 ± 0.01 µM |
| CC(=NN=Cc1ccc(Br)cc1F)c1ccc(OCc2ccc(Br)cc2)cc1 [Compound 2c, 1-(4-Bromo-2-fluorobenzylidene)-2-(1-(4-((4-bromobenzyl)oxy)phenyl)ethylidene)hydrazine] | 150 ± 2.26 µM | 175 ± 2.96 µM |
| CC(=NN=Cc1ccc(Cl)cc1)c1ccc(OCc2ccc(Br)cc2)cc1 [Compound 2d, 1-(1-(4-((4-Bromobenzyl)oxy)phenyl)ethylidene)-2-(4-chlorobenzylidene)hydrazine] | 139 ± 2.33 µM | 161.8 ± 0.07 µM |
| CC(=NN=Cc1ccc(C)o1)c1ccc(OCc2ccc(Br)cc2)cc1 [Compound 2e, 1-(1-(4-((4-Bromobenzyl)oxy)phenyl)ethylidene)-2-((5-methylfuran-2-yl)methylene) hydrazine] | 98.21 ± 0.01 µM | 136 ± 2.61 µM |
| COc1ccc(C=NN=C(C)c2ccc(OCc3ccc(Br)cc3)cc2)cc1 [Compound 2f, 1-(1-(4-((4-Bromobenzyl)oxy)phenyl)ethylidene)-2-(4-methoxybenzylidene)hydrazine] | 48.37 ± 0.06 µM | 76.3 ± 1.17 µM |
| CC(=NN=Cc1ccc(C)cc1)c1ccc(OCc2ccc(Br)cc2)cc1 [Compound 2g, 1-(1-(4-((4-Bromobenzyl)oxy)phenyl)ethylidene)-2-(4-methylbenzylidene)hydrazine] | 62.28 ± 0.42 µM | 98.7 ± 1.18 µM |
| CC(=NN=Cc1cccc2ccccc12)c1ccc(OCc2ccc(Br)cc2)cc1 [Compound 2h, 1-(1-(4-((4-Bromobenzyl)oxy)phenyl)ethylidene)-2-(naphthalen-1-ylmethylene)hydrazine] | 128.2 ± 0.98 µM | 166.3 ± 1.2 µM |
| CC(=NN=Cc1ccc(C=O)cc1)c1ccc(OCc2ccc(Br)cc2)cc1 [Compound 2i, 4-(((1-(4-((4-Bromobenzyl)oxy)phenyl)ethylidene)hydrazono)methyl)benzaldehyde] | 141.8 ± 0.77 µM | 177 ± 3.53 µM |
